# Reference: patent US20250092035A1, “ISOCITRATE DEHYDROGENASE 1 INHIBITORS AND METHODS OF USE THEREOF” (THE WISTAR INSTITUTE OF ANATOMY AND BIOLOGY, priority 2022, published 2025)
# Like-named read-outs stand apart in the source and are kept apart here.
# How the values were obtained:
# [1] = test system: MiaPaCa2 xenograft
# Protocol: In vivo studies. […] Mice were maintained under pathogen-free conditions in the animal facility. No additional food or nutrient-contained bedding provided to the animals during these studies. […] Mice with subcutaneous PDX were purchased from The Jackson Laboratory (#TM01212). […] Mice were imaged weekly to monitor tumor progression and tumor volume was assessed for each mouse and plotted longitudinally. […] All experiments with KPC mice were performed under a UK Home Office license and approved by the University of Glasgow Animal Welfare and Ethical Review Board. […] Tamoxifen dissolved in corn oil at 20 mg/ml, and animals received tamoxifen (75 mg/kg, IP administration, once daily) for six consecutive days. For flank xenograft experiments, 1×10^6 cells were suspended in 200 μL of a PBS:matrigel solution (1:1) and injected subcutaneously into the right flank of mice. For orthotopic experiments, 4×10^4 Luciferase-expressing KPC K8484 cells were suspended in 50 μL of a PBS:matrigel solution (1:1) and injected into the pancreas of C57BL/6 mice at 12 weeks of age. Equal number of male and female mice were used. Mice were anesthetized using isoflurane gas. After ensuring appropriate depth of anesthesia, a 0.5 cm left subcostal incision was made to gain access into the peritoneal cavity. The tail of the pancreas was externalized and the mixture was carefully injected into the pancreas. […]
# [2] = Microsomal stability (mouse liver microsome assay)
# [3] = Mouse pharmacokinetics study; conditions: CD-1, mouse, plasma, ip, 10 mg/kg
# [4] = target: T1, IDH1 (Homo sapiens, UniProt O75874); assay: IC50 dose-response curve fits (Example 1, assay not described); format: biochemical; conditions: for IC50: curve fit; for Bottom / Slope / Top: curve-fit parameter
# [5] = target: T1, IDH1; assay: IC50 in two trials and mean (Example 1, assay not described); format: biochemical
# [6] = reported (ref. 52); cited from earlier work
# [7] = target: T1, IDH1; assay: Two-step binding kinetics (Example 1, assay not described)
# [8] = Trial 1, read-out: IC50, Trial 1
# [9] = Trial 2, read-out: IC50, Trial 2
# [10] = mean of the trials, read-out: Mean IC50
# [11] = 1st step, read-out: KiAPP (affinity for 1st step)
# [12] = 2nd step, read-out: KiAPP* (affinity for 2nd step)
# T1 sequence (O75874 whole entry): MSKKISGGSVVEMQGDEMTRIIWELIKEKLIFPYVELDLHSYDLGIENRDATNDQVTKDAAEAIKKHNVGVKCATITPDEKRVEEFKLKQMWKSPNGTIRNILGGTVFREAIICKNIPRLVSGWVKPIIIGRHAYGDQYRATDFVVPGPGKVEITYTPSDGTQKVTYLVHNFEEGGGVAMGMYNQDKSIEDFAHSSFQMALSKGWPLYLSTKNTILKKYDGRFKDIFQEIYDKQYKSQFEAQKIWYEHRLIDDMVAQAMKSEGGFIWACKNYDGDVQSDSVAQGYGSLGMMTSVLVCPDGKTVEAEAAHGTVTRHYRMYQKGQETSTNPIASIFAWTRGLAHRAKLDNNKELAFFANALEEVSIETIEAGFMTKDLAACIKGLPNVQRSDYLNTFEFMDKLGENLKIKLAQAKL
Compound,"IC50 [5, 8] [nM]","IC50 [5, 9] [nM]","IC50 [5, 10] [nM]",other results
"CC1(C)CN(C(=O)c2cn[nH]c2)Cc2c(C(=O)Nc3ccc(F)cc3)nn(Cc3ccc(C(F)(F)F)cc3)c21 [FSM-3-002, N-(4-Fluorophenyl)-7,7-dimethyl-5-(1H-pyrazole-4-carbonyl)-1-(4-(trifluoromethyl)benzyl)-4,5,6,7-tetrahydro-1H-pyrazolo[4,3-c]pyridine-3-carboxamide]",,,,"xenograft growth ([1]; 75 mg/kg IP once daily): marked reduction in MiaPaCa2 xenograft growth; tolerability ([1]; mouse, in vivo, ip, 75 mg/kg): well-tolerated; half-life at 0.5 μM ([2]; liver microsomes): 147 min; Cmax [3]: 2320 ng/mL"
COc1cccc(NC(=O)c2nn(Cc3ccc(C(F)(F)F)cc3)c3c2CN(C(=O)c2ccc[nH]2)CC3(C)C)c1 [FSM-2-277],,,,IC50 [4]: 2.9 nM; Bottom [4]: 11.8; Slope [4]: 1.0; Top [4]: 99.3
COc1ccc(NC(=O)c2nn(Cc3ccc(C(F)(F)F)cc3)c3c2CN(C(=O)c2cccs2)CC3(C)C)cc1 [FSM-2-276],,,,IC50 [4]: 2.8 nM; Bottom [4]: 15.8; Slope [4]: 1.4; Top [4]: 98.9
CC1(C)CN(C(=O)c2ccc[nH]2)Cc2c(C(=O)Nc3ncco3)nn(Cc3ccc(F)cc3)c21 [FSM-2-113],1270,1050,1160,
"C[C@@H]1CN(C(=O)c2ccc[nH]2)Cc2c(C(=O)Nc3cccc([C@@H](C)O)c3)nn(Cc3ccc(F)cc3)c21 [FSM-206, reference compound]",,,,bioavailability [6]: poor bioavailability; Bottom [4]: −0.8; Slope [4]: 1.0; Top [4]: 98.0
"Cc1ncc2n1-c1ccc(Cl)cc1C(c1ccccc1F)=NC2 [Midazolam, reference compound]",,,,half-life at 0.5 μM ([2]; microsomes): 1.76 min
CC(O)c1cccc(NC(=O)c2nn(Cc3ccc(F)cc3)c3c2CN(C(=O)c2cccn2C)CC3(C)C)c1 (stereo not shown) [IAP-1-39],45,47,46,
CC1(C)CN(C(=O)c2ccc[nH]2)Cc2c(C(=O)Nc3cccc(C(=O)NC4CC4)c3)nn(Cc3ccc(F)cc3)c21 [IAP-1-23],1030,961,996,
Cc1ncsc1-c1ccc(CNC(=O)[C@@H]2C[C@@H](O)CN2C(=O)C(NC(=O)CCCCCCOc2cccc(NC(=O)c3nn(Cc4ccc(F)cc4)c4c3CN(C(=O)c3ccc[nH]3)CC4(C)C)c2)C(C)(C)C)cc1 (stereo partly shown) [FSM-3-17],,,,half-life at 0.5 μM ([2]; liver microsomes): 19.5 min
CC1(C)CN(C(=O)c2cccs2)Cc2c(C(=O)Nc3cccc(C(=O)NC4CCCCC4)c3)nn(Cc3ccc(F)cc3)c21 [IAP-1-37],19,18,19,
CC1(C)CN(C(=O)c2cccs2)Cc2c(C(=O)Nc3cccc(C(=O)NC4CCCC4)c3)nn(Cc3ccc(F)cc3)c21 [IAP-1-35],69,70,69,
COc1cccc(NC(=O)c2nn(Cc3ccc(C(F)(F)F)cc3)c3c2CN(C(=O)c2cccs2)CC3(C)C)c1 [FSM-2-278],,,,IC50 [4]: 2.9 nM; Bottom [4]: 4.6; Slope [4]: 1.0; Top [4]: 98.0
COc1ccc(NC(=O)c2nn(Cc3ccc(C(F)(F)F)cc3)c3c2CN(C(=O)c2ccc[nH]2)CC3(C)C)cc1 [FSM-2-275],,,,IC50 [4]: 3.3 nM; Bottom [4]: 3.6; Slope [4]: 1.3; Top [4]: 99.1
CC1(C)CN(C(=O)c2cccs2)Cc2c(C(=O)Nc3cccc(C(N)=O)c3)nn(Cc3ccc(F)cc3)c21 [FSM-2-96],265,253,259,
CC1(C)CN(C(=O)c2cn[nH]c2)Cc2c(C(=O)Nc3cccc(NC(=O)CCCl)c3)nn(Cc3ccc(C(F)(F)F)cc3)c21 [FSM-05-141],,,,"k5 (on rate for 2nd step, min−1) [7]: 0.257 min⁻¹; k6 (off rate for 2nd step) [7]: 0.002 min⁻¹; Ki [7, 11]: 12500 nM; Ki [7, 12]: 82.2 nM"
C=CC(=O)Nc1cccc(NC(=O)c2nn(Cc3ccc(C(F)(F)F)cc3)c3c2CN(C(=O)c2cn[nH]c2)CC3(C)C)c1 [FSM-05-157],,,,"k5 (on rate for 2nd step, min−1) [7]: 0.306 min⁻¹; k6 (off rate for 2nd step) [7]: 0.001 min⁻¹; Ki [7, 11]: 23600 nM; Ki [7, 12]: 64.8 nM"
CC1(C)CN(C(=O)c2ccc[nH]2)Cc2c(C(=O)Nc3cccc(C(N)=O)c3)nn(Cc3ccc(F)cc3)c21 [FSM-2-95],309,294,301,
Cn1cccc1C(=O)N1Cc2c(C(=O)Nc3ccccc3)nn(Cc3ccc(F)cc3)c2C(C)(C)C1 [VV-1-19],73,73,73,
CC1(C)CN(C(=O)c2cn[nH]c2)Cc2c(C(=O)Nc3cccc(F)c3)nn(Cc3ccc(C(F)(F)F)cc3)c21 [FSM-3-02],,,,IC50 [4]: 113 nM; Bottom [4]: −0.9; Slope [4]: 1.0; Top [4]: 95.0
CC1(C)CN(C(=O)c2ccc[nH]2)Cc2c(C(=O)Nc3nccs3)nn(Cc3ccc(F)cc3)c21 [FSM-2-115],> 10000,> 10000,> 10000,
CC1(C)CN(C(=O)c2ccc[nH]2)Cc2c(C(=O)Nc3cccc(C(=O)NC4CCCC4)c3)nn(Cc3ccc(F)cc3)c21 [IAP-1-34],88,95,91,
Cc1c[nH]c(C(=O)N2Cc3c(C(=O)Nc4cccc(C(C)O)c4)nn(Cc4ccc(F)cc4)c3C(C)(C)C2)c1 (stereo not shown) [IAP-1-40],520,475,497,
CC1(C)CN(C(=O)c2ccc[nH]2)Cc2c(C(=O)Nc3cccc(C(=O)O)c3)nn(Cc3ccc(F)cc3)c21 [FSM-2-97],> 10000,7830,7830,
CC(O)c1cccc(NC(=O)c2nn(Cc3ccc(C(F)(F)F)cc3)c3c2CN(C(=O)c2cn[nH]c2)CC3(C)C)c1 (stereo not shown) [FSM-2-302],,,,IC50 [4]: 36 nM; Bottom [4]: 4.0; Slope [4]: 1.0; Top [4]: 97.9; half-life at 0.5 μM ([2]; liver microsomes): 56.6 min
CC1(C)CN(C(=O)c2cccs2)Cc2c(C(=O)Nc3nccs3)nn(Cc3ccc(F)cc3)c21 [FSM-2-116],> 10000,8110,8110,
CC1(C)CN(C(=O)c2cccs2)Cc2c(C(=O)Nc3cccc(C(=O)O)c3)nn(Cc3ccc(F)cc3)c21 [FSM-2-98],6260,5070,5630,
CC1(C)CN(C(=O)c2cccs2)Cc2c(C(=O)Nc3ncco3)nn(Cc3ccc(F)cc3)c21 [FSM-2-114],1380,1230,1300,
